Experiments:
[1] = molecular target: T1, monoacylglycerol lipase (MGLL) (Mus musculus, UniProt O35678); assay: ITC with purified MGLL; supported by pull-down and LC-MS activity assay in hepatocyte lysate; type: binding; design: N-terminal 6×His fusion protein of the mouse MGLL domain
T1 sequence (O35678 1-303): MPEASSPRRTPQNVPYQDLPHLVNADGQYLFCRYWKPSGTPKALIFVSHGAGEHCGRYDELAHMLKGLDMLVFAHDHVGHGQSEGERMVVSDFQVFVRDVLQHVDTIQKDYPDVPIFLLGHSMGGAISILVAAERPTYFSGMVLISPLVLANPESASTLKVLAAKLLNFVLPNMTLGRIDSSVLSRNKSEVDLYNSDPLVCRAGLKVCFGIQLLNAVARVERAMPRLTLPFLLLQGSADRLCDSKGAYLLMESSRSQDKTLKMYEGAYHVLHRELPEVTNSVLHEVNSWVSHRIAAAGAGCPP

[2] = molecular target: T1, monoacylglycerol lipase (MGLL); assay: LC-MS 2-oleoylglycerol hydrolysis assay in hepatocyte lysate, […]; type: cell-based; design: endogenous or adenovirus-overexpressed MGLL in primary hepatocyte homogenate

| Kd [1] | Compound | LC-MS 2-oleoylglycerol hydrolysis assay in hepatocyte lysate, 50 μM [2] |
| --- | --- | --- |
| 40.6 µM | CC(=O)O[C@@H]1CC[C@@]2(C)[C@@H](CC[C@]3(C)[C@@H]2C(=O)C=C2[C@@H]4[C@@H](C)[C@H](C)CC[C@]4(C)CC[C@]23C)[C@@]1(C)C(=O)O [AKBA] |  |
|  | COC(=O)[C@]1(C)CC[C@]2(C)CC[C@]3(C)C4=CC=C5C(=CC(=O)C(O)=C5C)[C@]4(C)CC[C@@]3(C)[C@@H]2C1 [pristimerin] | both AKBA and pristimerin significantly reduced MGLL activity in wild-type primary hepatocytes as well as in those overexpressing MGLL |

From article PMC12139501, “Acetyl-11-keto-β-boswellic acid alleviates hepatic metabolic dysfunction by inhibiting MGLL activity” (Journal of Lipid Research, 2025)
